The structures appear in SMILES notation. pIC50: −log10 of the molar value. Where only a bound is given, the exact number is not on record here.

Assay [1] has as its target Recombinant SHP-1 protein (Homo sapiens, UniProt P29350). Kind of assay: SHP-1 phosphatase activity assay (RediPlate 96 EnzChek Tyrosine Phosphatase Assay kit). Type of assay: biochemical. The following applies: SC derivatives at 1 μM for 2 hr; recombinant SHP-1 25 ng; control DMSO = 100; mean±SD (N=3). On the procedure: Effects of SC Derivatives on Phosphatase Activity in Recombinant SHP-1 RediPlate 96 EnzChek Tyrosine Phosphatase Assay kit (R-22067) was used for SHP-1 activity assay (Molecular Probes). Recombinant SHP-1 protein (25 ng) was reacted with SC derivatives at 1 μM for 2 hr. Then the SHP-1 phosphatase activity assay was performed according to the user's manual and the absorbance was measured at 465 nm. The control group was DMSO, which functioned as the solvent of the SC derivatives. The values were expressed by mean±SD (N=3).

Assay [2] deals with PLC5 cells (a hepatocellular carcinoma cell line). Kind of assay: Cytotoxicity, MTT cell viability assay. It counts as cell-based. The following applies: 72 h exposure. On the procedure: PLC5 cells (a hepatocellular carcinoma cell line) were seeded at 5×10^3 cells per well in 96-well plates. Then, cells were exposed to SC derivatives at the indicated doses for 72 h. After that, cells were incubated with MTT (1 mg/ml) (Sigma-Aldrich, St. Louis, Mo.) for 2 h at 37° C. Cell viability was then assessed by measuring the absorbance at 570 nm using a microplate reader.
Background: Tetrazolium assays rely on reduction of a dye to a coloured formazan, in cell work by metabolically active cells.

Sequence of Recombinant SHP-1 protein (P29350 whole entry): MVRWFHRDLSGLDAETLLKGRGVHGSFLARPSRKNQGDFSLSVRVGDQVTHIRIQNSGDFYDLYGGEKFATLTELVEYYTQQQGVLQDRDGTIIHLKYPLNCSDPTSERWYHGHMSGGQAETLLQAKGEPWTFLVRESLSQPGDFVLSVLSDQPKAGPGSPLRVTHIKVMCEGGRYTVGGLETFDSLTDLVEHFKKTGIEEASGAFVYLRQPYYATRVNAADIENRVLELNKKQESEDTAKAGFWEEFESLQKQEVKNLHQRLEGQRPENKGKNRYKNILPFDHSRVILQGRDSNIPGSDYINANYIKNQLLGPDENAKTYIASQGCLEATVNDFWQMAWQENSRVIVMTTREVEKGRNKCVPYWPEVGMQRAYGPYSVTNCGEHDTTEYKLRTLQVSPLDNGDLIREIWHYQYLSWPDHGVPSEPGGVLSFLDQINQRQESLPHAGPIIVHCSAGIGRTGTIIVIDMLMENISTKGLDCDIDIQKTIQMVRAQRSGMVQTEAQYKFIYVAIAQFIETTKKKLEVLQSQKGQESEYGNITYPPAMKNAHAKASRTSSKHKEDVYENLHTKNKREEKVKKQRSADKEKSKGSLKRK

What is called pIC50 is the IC50 on a negative log10 scale, so that one unit is a factor of ten. A high value points to a small IC50. Turning to `Cc1ccc(NC(=O)Nc2ccc(C)c(Oc3ccc(C#N)nc3)c2)cc1Oc1ccc(C#N)cc1` [compound 99, 1-(3-(4-cyanophenoxy)-4-methylphenyl)-3-(3-((6-cyanopyridin-3-yl)oxy)-4-methylphenyl)urea], the “SHP-1 Activity (% of control)” value in assay [1] was 99.86 ± 3.65 % of control. In assay [2], this compound gave a pIC50 of 6.74.

For the compound `Cc1ccc(NC(=O)Nc2ccc(C)c(Oc3ccc(C#N)c(Cl)c3)c2)cc1Oc1ccc(C#N)cc1` [compound 100, 1-(3-(3-chloro-4-cyanophenoxy)-4-methylphenyl)-3-(3-(4-cyanophenoxy)-4-methylphenyl)urea], the “SHP-1 Activity (% of control)” value in assay [1] is reported as 94.38 ± 11.11 % of control. The compound further had a negative-log IC50 (pIC50) in assay [2] of 6.96.

As for `Cc1cc(Oc2cc(NC(=O)Nc3ccc(C)c(Oc4ccc(C#N)nc4)c3)ccc2C)ccc1C#N` [compound 102, 1-(3-(4-cyano-3-methylphenoxy)-4-methylphenyl)-3-(3-((6-cyanopyridin-3-yl)oxy)-4-methylphenyl)urea], the “SHP-1 Activity (% of control)” value in assay [1] is 140.46 ± 12.56 % of control. In addition, the negative-log IC50 (pIC50) in assay [2] was 6.80.

On to `Cc1ccc(NC(=O)Nc2ccc(C)c(Oc3ccc(C#N)c(Cl)c3)c2)cc1Oc1ccc(C#N)nc1` [compound 103, 1-(3-(3-chloro-4-cyanophenoxy)-4-methylphenyl)-3-(3-((6-cyanopyridin-3-yl)oxy)51-4-methylphenyl)urea], for which, in assay [1], the “SHP-1 Activity (% of control)” value is listed as 123.75 ± 32.58 % of control. Also, the pIC50 in assay [2] is 6.72.

On to `Cc1ccc(NC(=O)Nc2ccc(C)c(Oc3cnc(C#N)c(F)c3)c2)cc1Oc1cnc(C#N)c(F)c1` [compound 104, 1,3-bis(3-((6-cyano-5-fluoropyridin-3-yl)oxy)-4-methylphenyl)urea], for which the “SHP-1 Activity (% of control)” value in assay [1] is listed as 139.74 ± 4.92 % of control. In assay [2], this compound gave a pIC50 of under 5.00.

For the compound `N#Cc1ccc(Oc2ccc(F)c(NC(=O)Nc3ccc(Cl)c(C(F)(F)F)c3)c2)cc1` [compound 105, 1-(4-chloro-3-(trifluoromethyl)phenyl)-3-(5-(4-cyanophenoxy)-2-fluorophenyl)urea], in assay [1], the “SHP-1 Activity (% of control)” value is 424.63 ± 10.66 % of control. For the same compound, the pIC50 in assay [2] is 6.33.

In the case of `N#Cc1ccc(Oc2ccc(NC(=O)Nc3ccc(Oc4ccc(C#N)cc4)cc3F)c(F)c2)cc1` [compound 106, 1,3-bis(4-(4-cyanophenoxy)-2-fluorophenyl)urea], in assay [1], the “SHP-1 Activity (% of control)” value was 147.13 ± 8.51 % of control. Moreover, in assay [2], the negative-log IC50 (pIC50) is under 5.00.

Take `Cc1ccc(NC(=O)Nc2cccc3ccc(Oc4ccc(C#N)cc4)cc23)cc1Oc1ccc(C#N)cc1` [compound 107, 1-(3-(4-cyanophenoxy)-4-methylphenyl)-3-(7-(4-cyanophenoxy)naphthalen-1-yl)urea]: in assay [1], the “SHP-1 Activity (% of control)” value is 149.03 ± 14.47 % of control. In assay [2], this compound gave a pIC50 of under 5.00.

Consider `N#Cc1ccc(Oc2ccc(NC(=O)Nc3ccc(Cl)c(C(F)(F)F)c3)c(F)c2)cc1Cl` [compound 108, 1-(4-chloro-3-(trifluoromethyl)phenyl)-3-(4-(3-chloro-4-cyanophenoxy)-2-fluorophenyl)urea], for which the “SHP-1 Activity (% of control)” value in assay [1] was 133.11 ± 12.03 % of control. The compound further gave a negative logarithm of the IC50 (pIC50) in assay [2] of under 5.00.

For the compound `N#Cc1ccc(Oc2ccc3cccc(NC(=O)Nc4ccc(Cl)c(C(F)(F)F)c4)c3c2)cc1Cl` [compound 109, 1-(4-chloro-3-(trifluoromethyl)phenyl)-3-(7-(3-chloro-4-cyanophenoxy)naphthalen-1-yl)urea], the “SHP-1 Activity (% of control)” value in assay [1] is reported as 143.61 ± 5.36 % of control. This compound also had a pIC50 in assay [2] of 5.68.

`Cc1ccc(NC(=O)Nc2cc(Oc3ccc(C#N)cc3)ccc2F)cc1Oc1ccc(C#N)nc1` [compound 110, 1-(5-(4-cyanophenoxy)-2-fluorophenyl)-3-(3-((6-cyanopyridin-3-yl)oxy)-4-methylphenyl)urea]: in assay [1], the “SHP-1 Activity (% of control)” value is on record as 146.29 ± 12.80 % of control. The pIC50 in assay [2] was 5.12.

In the case of `N#Cc1ccc(Oc2cc(NC(=O)Nc3ccc(Cl)c(C(F)(F)F)c3)ccc2F)cc1` [compound 111, 1-(4-chloro-3-(trifluoromethyl)phenyl)-3-(3-(4-cyanophenoxy)-4-fluorophenyl)urea], the “SHP-1 Activity (% of control)” value in assay [1] is 156.55 ± 5.99 % of control. This compound also showed a negative-log IC50 (pIC50) in assay [2] of 6.62.

Take `N#Cc1ccc(Oc2cc(NC(=O)Nc3ccc(F)c(Oc4ccc(C#N)cc4)c3)ccc2F)cc1` [compound 112, 1,3-bis(3-(4-cyanophenoxy)-4-fluorophenyl)urea]: the “SHP-1 Activity (% of control)” value in assay [1] is given as 146.18 ± 14.74 % of control. The compound also showed a pIC50 in assay [2] of 6.31.

`Cc1ccc(NC(=O)Nc2ccc(C)c(Oc3ccc(C#N)c4ccccc34)c2)cc1Oc1ccc(C#N)c2ccccc12` [compound 113, 1,3-bis(3-((4-cyanonaphthalen-1-yl)oxy)-4-methylphenyl)urea]: the “SHP-1 Activity (% of control)” value in assay [1] was 153.49 ± 13.55 % of control. This compound gave a pIC50 in assay [2] of under 5.00.

Regarding `Cc1ccc(NC(=O)Nc2ccc(Cl)c(C(F)(F)F)c2)cc1Oc1ccc(C#N)c2ccccc12` [compound 114, 1-(4-chloro-3-(trifluoromethyl)phenyl)-3-(3-((4-cyanonaphthalen-1-yl)oxy)-4-methylphenyl)urea], the “SHP-1 Activity (% of control)” value in assay [1] is listed as 156.85 ± 6.04 % of control. The compound also gave a pIC50 in assay [2] of 6.12.

As to `Cc1ccc(NC(=O)Nc2cc(C(F)(F)F)cc(C(F)(F)F)c2)cc1Oc1ccc(C#N)cc1` [compound 131, 1-(3,5-bis(trifluoromethyl)phenyl)-3-(3-(4-cyanophenoxy)-4-methylphenyl) urea], the “SHP-1 Activity (% of control)” value in assay [1] is listed as 327.86 ± 34.79 % of control. The negative logarithm of the IC50 (pIC50) in assay [2] was 6.64.

Consider `Cc1ccc(NC(=O)Nc2ccc(F)c(C(F)(F)F)c2)cc1Oc1ccc(C#N)cc1` [compound 132, 1-(3-(4-cyanophenoxy)-4-methylphenyl)-3-(4-fluoro-3-(trifluoromethyl)phenyl)urea], for which the “SHP-1 Activity (% of control)” value in assay [1] is on record as 151.59 ± 9.68 % of control. Besides, the negative-log IC50 (pIC50) in assay [2] was 6.19.

Regarding `Cc1ccc(NC(=O)Nc2ccc(Cl)c(C(F)(F)F)c2)cc1Oc1ccc(C#N)cc1` [compound 133, 1-(4-chloro-3-(trifluoromethyl)phenyl)-3-(3-(4-cyanophenoxy)-4-methylphenyl)urea], in assay [1], the “SHP-1 Activity (% of control)” value is 253.18 ± 26.17 % of control. Besides, the pIC50 in assay [2] was 6.36.

For `Cc1ccc(NC(=O)Nc2cccc(C(F)(F)F)c2)cc1Oc1ccc(C#N)cc1` [compound 134, 1-(3-(4-cyanophenoxy)-4-methylphenyl)-3-(3-(trifluoromethyl)phenyl)urea], in assay [1], the “SHP-1 Activity (% of control)” value is recorded as 152.29 ± 7.92 % of control. The pIC50 in assay [2] was 6.13.

With `Cc1ccc(NC(=O)Nc2ccc(CC#N)cc2)cc1Oc1ccc(C#N)cc1` [compound 135, 1-(4-(cyanomethyl)phenyl)-3-(3-(4-cyanophenoxy)-4-methylphenyl)urea], the “SHP-1 Activity (% of control)” value in assay [1] is reported as 153.32 ± 14.65 % of control. In assay [2], this compound showed a pIC50 of 5.73.

Turning to `N#Cc1ccc(Oc2cc(NC(=O)Nc3ccc(F)c(C(F)(F)F)c3)ccc2Cl)cc1` [compound 137, 1-(4-chloro-3-(4-cyanophenoxy)phenyl)-3-(4-fluoro-3-(trifluoromethyl)phenyl)urea], the “SHP-1 Activity (% of control)” value in assay [1] is 180.35 ± 35 % of control. Also, in assay [2], the negative-log IC50 (pIC50) is 6.31.

For `N#Cc1ccc(Oc2cc(NC(=O)Nc3cccc(C(F)(F)F)c3)ccc2Cl)cc1` [compound 138, 1-(4-chloro-3-(4-cyanophenoxy)phenyl)-3-(3-(trifluoromethyl)phenyl)urea], the “SHP-1 Activity (% of control)” value in assay [1] is 196.54 ± 22.4 % of control. This compound gave a negative-log IC50 (pIC50) in assay [2] of 6.24.

On to `N#Cc1ccc(Oc2cc(NC(=O)Nc3ccc(Cl)c(C(F)(F)F)c3)ccc2Cl)cc1` [compound 139, 1-(4-chloro-3-(4-cyanophenoxy)phenyl)-3-(4-chloro-3-(trifluoromethyl)phenyl)urea], for which, in assay [1], the “SHP-1 Activity (% of control)” value was 280.62 ± 16.62 % of control. The pIC50 in assay [2] was 6.51.

Regarding `C#Cc1cccc(NC(=O)Nc2ccc(Cl)c(Oc3ccc(C#N)cc3)c2)c1` [compound 140, 1-(4-chloro-3-(4-cyanophenoxy)phenyl)-3-(3-ethynylphenyl)urea], in assay [1], the “SHP-1 Activity (% of control)” value was 140.81 ± 2.48 % of control. The compound further showed a pIC50 in assay [2] of 6.08.

Take `N#Cc1ccc(Oc2ccc(Cl)c(NC(=O)Nc3cc(C(F)(F)F)cc(C(F)(F)F)c3)c2)cc1` [compound 141, 1-(3,5-bis(trifluoromethyl)phenyl)-3-(2-chloro-5-(4-cyanophenoxy)phenyl) urea]: the “SHP-1 Activity (% of control)” value in assay [1] is 273.26 ± 86.35 % of control. Besides, the negative-log IC50 (pIC50) in assay [2] is 6.55.

Consider `N#Cc1ccc(Oc2ccc(Cl)c(NC(=O)Nc3ccc(Cl)c(C(F)(F)F)c3)c2)cc1` [compound 142, 1-(4-chloro-3-(trifluoromethyl)phenyl)-3-(2-chloro-5-(4-cyanophenoxy)phenyl)urea], for which, in assay [1], the “SHP-1 Activity (% of control)” value is 249.66 ± 5.81 % of control. The negative-log IC50 (pIC50) in assay [2] was 6.35.

Turning to `N#Cc1ccc(Oc2ccc(Cl)c(NC(=O)Nc3ccc(F)c(C(F)(F)F)c3)c2)cc1` [compound 143, 1-(2-chloro-5-(4-cyanophenoxy)phenyl)-3-(4-fluoro-3-(trifluoromethyl)phenyl)urea], the “SHP-1 Activity (% of control)” value in assay [1] was 198.37 ± 32.5 % of control. The pIC50 in assay [2] was 6.21.

Regarding `C#Cc1cccc(NC(=O)Nc2cc(Oc3ccc(C#N)cc3)ccc2F)c1` [compound 144, 1-(5-(4-cyanophenoxy)-2-fluorophenyl)-3-(3-ethynylphenyl)urea], the “SHP-1 Activity (% of control)” value in assay [1] is given as 159.94 ± 30.14 % of control. The pIC50 in assay [2] is 5.75.
